Source: patent US20200255884A1, “METHOD OF DETECTION OF DNA END(S) AND ITS USE” (INTODNA SP. Z O.O., priority 2017, published 2020)

Assays:
[1] = test system: HeLa 21-4 cells; test: DNA ends detection in fixed HeLa cells subjected to damaging agents (H2O2, Tpt), Procedure 1; assay type: cell-based; conditions: 30 min at 37 °C, H2O2 4 mM, Tpt 20 μM
Description: Procedure: • 1. Pre-preparation (optional): • Incubation of live cells with 0.5-10 mM Tris (5 min-1 h at room temperature (RT)), cells should be monitored for morphological abnormalities. • 2. Fixation and permeabilization: • a. Incubation with 1%-4% formaldehyde solution, 10-15 min, 4° C. (optional) • b. Incubation with an […] detergent (e.g. Triton X-100 (0.25-3%) 10 min-1 h, RT. (optional) • c. Incubation in 70% ethanol in water, 1 h minimum but preferred 12-18 h, −20° C., sample should be stable for several months. (optional but most preferred) • 3. Pre-blocking (optional): • a. Wash (PBS 1×5 min) • b. Streptavidin solution—incubation performed on a droplet, 30 min, RT • c. Wash (PBS 3×5 min) • d. Biotin solution—incubation performed on a droplet, 30 min, RT • e. Wash (PBS 3×5 min) • 4. Increasing accessibility of DNA ends: • Incubation with 0.5-10 mM EDTA in water, 10 min-1 h, RT. • 5. Incorporation procedure: • Incorporation of unmodified and modified nucleotides (e.g. BrdU) using terminal deoxynucleotidyl transferase: • a. incubation is performed on a droplet in a humid chamber • b. samples are rinsed in wash buffers • 6. Blocking: • Incubation with 1-5% BSA solution in PBS (from 1 h to overnight in 4° C., RT). • 7. Incubation with primary antibodies—performed on a droplet in a humid chamber: • a. primary antibodies type 1 (e.g. mouse monoclonal against BrdU), preferred dilution 1:100 in 1-5% BSA, 1 h, RT • b. wash (PBS 3×5 min) • c. primary antibodies type 2 (e.g. rabbit polyclonal against BrdU), preferred dilution 1:100 in 1-5% BSA, 1 h, RT • d. wash (PBS 3×5 min) • 8. PLA procedure: • a. incubation with PLA Probes diluted in 1% BSA (37° C., 60 min, reaction on a droplet, in a humid chamber) in 40 μl of the reaction mixture per one coverslip: • 8 μl of PLA Probe MINUS stock (e.g. anti-mouse) • 8 μl of PLA Probe PLUS stock (e.g. anti-rabbit) • 24 μl of 1% BSA • b. wash samples with Wash Buffer A (2×5 min) • c. ligation—incubation (37° C., 30 min, reaction on a droplet, in a humid chamber) in 40 μl of the reaction mixture per one coverslip: • 8 μl of 5× Ligation stock (Sigma, Duolink, DUO82009), • 31 μl of ultrapure, RNAse/DNAse free, distilled water, • 1 μl of Ligase (1 U/μl) (Sigma, Duolink, DUO82027 or DUO82029) • d. wash samples with Wash Buffer A (2×2 min) • e. amplification—incubation (37° C., 100 min, reaction performed on a droplet, in a humid chamber) in 40 μl of the reaction mixture per one coverslip: • 8 μl of 5× Amplification stock (Sigma, Duolink, DUO82060 or DUO82011), • 31.5 μl of ultrapure, RNAse/DNAse free, distilled water, • 0.5 μl of Polymerase (10 U/μl) (Sigma, Duolink, DUO82028 or DUO82030) • 9. Imaging of samples in PBS using a fluorescence microscope. […]

[2] = test system: HeLa 21-4 cells; test: Detection of DNA breaks induced by photodynamic effect (ethidium bromide + 488 nm laser) in HeLa cells, Procedure 1; assay type: cell-based; conditions: ethidium bromide (500 μM) 10 min, dose 9 mJ
Description: In this experiment the DNA breaks were induced by treating live cells (HeLa 21-4 cells, obtained from prof. P.R. Cook, Oxford University) with ethidium bromide (500 μM) for 10 min and then parking the laser beam (488 nm) at a chosen place inside the nucleus (dose: 9 mJ) 2 minutes after illumination step 2 of Procedure 1 was performed. The aim of the experiment was to directly detect DNA break (s) inflicted at a specific area of the cell nucleus by a photodynamic effect.
HeLa 21-4 cells were first seeded on 18-mm coverslips and cultured for 3 days in DMEM supplemented with 10% FBS. After culturing, DNA damage was induced in chosen cells, as described previously, followed by incubation in 70% ethanol in water, 15 h, −20° C. After that, increasing of accessibility of DNA ends (step 4) was performed with 10 mM EDTA in water, 1 h, RT. Incorporation of modified (BrdUTP) nucleotides (Phoenix Flow Systems) by terminal deoxynucleotidyl transferase was performed according to the kit supplier's instructions (APO-BRDU kit, Phoenix Flow Systems). The cells were then incubated with 1% BSA solution in PBS (overnight in 4° C.). The incubation with primary antibodies type 1 and 2 according to step 7 of Procedure 2 were performed using mouse monoclonal anti-BrdU (Abcam, ab8039) and rabbit polyclonal anti-BrdU (Abcam, ab152095) (1:100 in 1% BSA), respectively. […]

| SMILES | percentage of cells that show signs of heavy DNA damage (apoptotic cells) in the population ([1]; untreated less than 5%) | average number of detectable regions of incorporation of BrdU (free ends of DNA) per cell ([1]; ± standard error of the mean) | damaged nuclei with fluorescence focus visible at the illuminated place or in its direct proximity [2] [%] |
| --- | --- | --- | --- |
| CC[C@@]1(O)C(=O)OCc2c1cc1n(c2=O)Cc2cc3c(CN(C)C)c(O)ccc3nc2-1 [Tpt, topotecan] | approximately 18% | 16.39±4.92 |  |
| CC[n+]1c(-c2ccccc2)c2cc(N)ccc2c2ccc(N)cc21 [ethidium bromide] |  |  | 90 |
